Results as given in patent publication US6737383B1, “Herbicidal oxadiazolidines” (priority 1999, dated 2004).

Experiments:
soybean = test: Test B pre/postemergence soybean; assay type: in vivo, Glycine max
Summary of the method: (§1)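 Herbicidal effect was estimated by eye on a ten-point control scale after plants spent twelve to sixteen days in a greenhouse following soil or foliar treatment. Foliar sprays targeted plants at one to four leaves; all doses were formulated in a non-phytotoxic solvent with surfactant.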

rice = test: Test B flood test rice; assay type: in vivo, Oryza sativa
Summary of the method: (§2)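 Read-out is a visual response score from 0 (no effect) to 10 (complete control), assigned by comparison with untreated controls. Treatment was applied at the 2-leaf stage, and plants stayed in the greenhouse for twelve to sixteen days before scoring.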

velvetleaf = test: Test B pre/postemergence velvetleaf; assay type: in vivo, Abutilon theophrasti
Summary of the method: as §1

morningglory = test: Test B pre/postemergence morningglory; assay type: in vivo, Ipomoea hederacea
Summary of the method: as §1

purple nutsedge = test: Test B pre/postemergence purple nutsedge; assay type: in vivo, Cyperus rotundus
Summary of the method: as §1

bamyardgrass = test: Test B flood test barnyardgrass; assay type: in vivo, Echinochloa crus-galli
Summary of the method: as §2

rape = test: Test B pre/postemergence rape; assay type: in vivo, Brassica napus
Summary of the method: as §1

blackgrass = test: Test B pre/postemergence blackgrass; assay type: in vivo, Alopecurus myosuroides
Summary of the method: as §1

pigweed = test: Test B pre/postemergence pigweed; assay type: in vivo, Amaranthus retroflexus
Summary of the method: as §1

sugar beet = test: Test B pre/postemergence sugar beet; assay type: in vivo, Beta vulgaris
Summary of the method: as §1

wheat = test: Test B pre/postemergence wheat; assay type: in vivo, Triticum aestivum
Summary of the method: as §1

cocklebur = test: Test B pre/postemergence cocklebur; assay type: in vivo, Xanthium strumarium
Summary of the method: as §1

smallflower flatsedge = test: Test B flood test smallflower flatsedge; assay type: in vivo, Cyperus difformis
Summary of the method: as §2

wild oat = test: Test B pre/postemergence wild oat; assay type: in vivo, Avena fatua
Summary of the method: as §1

giant foxtail = test: Test B pre/postemergence giant foxtail; assay type: in vivo, Setaria faberii
Summary of the method: as §1

duck salad = test: Test B flood test duck salad; assay type: in vivo, Heteranthera limosa
Summary of the method: as §2

[1] = Postemergence, Rate 125 g/ha, scale of 0 to 10 where 0 is no effect and 10 is complete control
[2] = Postemergence, Rate 1000 g/ha, scale 0 to 10 (0 no effect, 10 complete control)
[3] = Preemergence, Rate 62 g/ha, scale 0 to 10 (0 no effect, 10 complete control)
[4] = Preemergence, Rate 125 g/ha, 0 is no effect, 10 is complete control
[5] = Preemergence, Rate 250 g/ha, scale 0 to 10, 0 is no effect, 10 is complete control
[6] = Preemergence, Rate 500 g/ha, scale 0 to 10 (0 no effect, 10 complete control)
[7] = Rate 62 g/ha, Postemergence, scale of 0 to 10 where 0 is no effect and 10 is complete control
[8] = Rate 250 g/ha, Postemergence, scale 0 to 10, 0 is no effect, 10 is complete control
[9] = Rate 500 g/ha, Postemergence, scale 0 to 10
[10] = Rate 1000 g/ha, Preemergence, scale 0 to 10 (0 no effect, 10 complete control)
[11] = Postemergence (flood test species), Rate 125 g/ha, scale of 0 to 10 where 0 is no effect and 10 is complete control
[12] = Rate 62 g/ha, Postemergence section, flood test species, scale of 0 to 10 where 0 is no effect and 10 is complete control
[13] = Rate 250 g/ha, Postemergence (flood test), scale 0 to 10, 0 is no effect, 10 is complete control
[14] = Rate 500 g/ha, listed under Postemergence (flood test species), scale 0 to 10

C=CCn1c(=O)on(C(=O)N(c2ccc(F)cc2F)C2CC2)c1=O [Compound 127]
4: Giant foxtail plant response rating (giant foxtail; [6])
0: Soybean plant response rating (soybean; [1]) | Soybean plant response rating (soybean; [2]) | Soybean plant response rating (soybean; [3]) | Soybean plant response rating (0 to 10 scale) (soybean; [4]) | Soybean plant response rating (soybean; [5]) | Soybean plant response rating (soybean; [6]) | Soybean plant response rating (soybean; [7]) | Plant response rating, Soybean (soybean; [8]) | Soybean plant response rating (soybean; [9]) | Plant response rating, Soybean (soybean; [10]) | Rice plant response rating (rice; [11]) | Rice plant response rating (rice; [12]) | Plant response rating, Rice (rice; [13]) | Rice plant response rating (rice; [14]) | Velvetleaf plant response rating (velvetleaf; [1]) | Velvetleaf plant response rating (velvetleaf; [2]) | Velvetleaf plant response rating (velvetleaf; [3]) | Velvetleaf plant response rating (0 to 10 scale) (velvetleaf; [4]) | Velvetleaf plant response rating (velvetleaf; [5]) | Velvetleaf plant response rating (velvetleaf; [6]) | Velvetleaf plant response rating (velvetleaf; [7]) | Plant response rating, Velvetleaf (velvetleaf; [8]) | Velvetleaf plant response rating (velvetleaf; [9]) | Plant response rating, Velvetleaf (velvetleaf; [10]) | Morningglory plant response rating (morningglory; [1]) | Morningglory plant response rating (morningglory; [2]) | Morningglory plant response rating (morningglory; [3]) | Morningglory plant response rating (0 to 10 scale) (morningglory; [4]) | Morningglory plant response rating (morningglory; [5]) | Morningglory plant response rating (morningglory; [6]) | Morningglory plant response rating (morningglory; [7]) | Plant response rating, Morningglory (morningglory; [8]) | Morningglory plant response rating (morningglory; [9]) | Plant response rating, Morningglory (morningglory; [10]) | Nutsedge plant response rating (purple nutsedge; [1]) | Nutsedge plant response rating (purple nutsedge; [2]) | Nutsedge plant response rating (purple nutsedge; [3]) | Nutsedge plant response rating (0 to 10 scale) (purple nutsedge; [4]) | Nutsedge plant response rating (purple nutsedge; [5]) | Nutsedge plant response rating (purple nutsedge; [6]) | Nutsedge plant response rating (purple nutsedge; [7]) | Plant response rating, Nutsedge (purple nutsedge; [8]) | Nutsedge plant response rating (purple nutsedge; [9]) | Barnyardgrass plant response rating (bamyardgrass; [11]) | Barnyardgrass plant response rating (bamyardgrass; Postemergence, Rate 62 g/ha, scale 0 to 10, 0 is no effect, 10 is complete control) | Plant response rating, Barnyardgrass (bamyardgrass; [13]) | Barnyardgrass plant response rating (bamyardgrass; Rate 500 g/ha, listed under Postemergence (flood test species), scale 0 to 10, 0 no effect, 10 complete control) | Rape plant response rating (rape; [1]) | Rape plant response rating (rape; [2]) | Rape plant response rating (rape; [3]) | Rape plant response rating (0 to 10 scale) (rape; [4]) | Rape plant response rating (rape; [5]) | Rape plant response rating (rape; [6]) | Rape plant response rating (rape; [7]) | Plant response rating, Rape (rape; [8]) | Rape plant response rating (rape; [9]) | Plant response rating, Rape (rape; [10]) | Blackgrass plant response rating (blackgrass; [1]) | Blackgrass plant response rating (blackgrass; [2]) | Blackgrass plant response rating (blackgrass; [3]) | Blackgrass plant response rating (0 to 10 scale) (blackgrass; [4]) | Blackgrass plant response rating (blackgrass; [5]) | Blackgrass plant response rating (blackgrass; [6]) | Blackgrass plant response rating (blackgrass; [7]) | Plant response rating, Blackgrass (blackgrass; [8]) | Blackgrass plant response rating (blackgrass; [9]) | Plant response rating, Blackgrass (blackgrass; [10]) | Redroot pigweed plant response rating (pigweed; [1]) | Redroot pigweed plant response rating (pigweed; [2]) | Redroot pigweed plant response rating (pigweed; [3]) | Redroot pigweed plant response rating (0 to 10 scale) (pigweed; [4]) | Redroot pigweed plant response rating (pigweed; [7]) | Plant response rating, Redroot pigweed (pigweed; [8]) | Redroot pigweed plant response rating (pigweed; [9]) | Sugarbeets plant response rating (sugar beet; [1]) | Sugarbeets plant response rating (sugar beet; [2]) | Sugarbeets plant response rating (sugar beet; [3]) | Sugarbeets plant response rating (0 to 10 scale) (sugar beet; [4]) | Sugarbeets plant response rating (sugar beet; [5]) | Sugarbeets plant response rating (sugar beet; [6]) | Sugarbeets plant response rating (sugar beet; [7]) | Plant response rating, Sugarbeets (sugar beet; [8]) | Sugarbeets plant response rating (sugar beet; [9]) | Plant response rating, Sugarbeets (sugar beet; [10]) | Wheat plant response rating (wheat; [1]) | Wheat plant response rating (wheat; [2]) | Wheat plant response rating (wheat; [3]) | Wheat plant response rating (0 to 10 scale) (wheat; [4]) | Wheat plant response rating (wheat; [5]) | Wheat plant response rating (wheat; [6]) | Wheat plant response rating (wheat; [7]) | Plant response rating, Wheat (wheat; [8]) | Wheat plant response rating (wheat; [9]) | Cocklebur plant response rating (cocklebur; [1]) | Cocklebur plant response rating (cocklebur; [2]) | Cocklebur plant response rating (cocklebur; [3]) | Cocklebur plant response rating (0 to 10 scale) (cocklebur; [4]) | Cocklebur plant response rating (cocklebur; [5]) | Cocklebur plant response rating (cocklebur; [6]) | Cocklebur plant response rating (cocklebur; [7]) | Plant response rating, Cocklebur (cocklebur; [8]) | Cocklebur plant response rating (cocklebur; [9]) | S. Flatsedge plant response rating (smallflower flatsedge; [11]) | S. Flatsedge plant response rating (smallflower flatsedge; [12]) | Plant response rating, S. Flatsedge (smallflower flatsedge; [13]) | S. Flatsedge plant response rating (smallflower flatsedge; [14]) | Wild oats plant response rating (wild oat; [1]) | Wild oats plant response rating (wild oat; [2]) | Wild oats plant response rating (wild oat; [3]) | Wild oats plant response rating (0 to 10 scale) (wild oat; [4]) | Wild oats plant response rating (wild oat; [5]) | Wild oats plant response rating (wild oat; [6]) | Wild oats plant response rating (wild oat; [7]) | Plant response rating, Wild oats (wild oat; [8]) | Wild oats plant response rating (wild oat; [9]) | Giant foxtail plant response rating (giant foxtail; [1]) | Giant foxtail plant response rating (giant foxtail; [2]) | Giant foxtail plant response rating (giant foxtail; [3]) | Giant foxtail plant response rating (0 to 10 scale) (giant foxtail; [4]) | Giant foxtail plant response rating (giant foxtail; [7]) | Plant response rating, Giant foxtail (giant foxtail; [8]) | Giant foxtail plant response rating (giant foxtail; [9]) | Ducksalad plant response rating (duck salad; [11]) | Ducksalad plant response rating (duck salad; [12]) | Plant response rating, Ducksalad (duck salad; [13]) | Ducksalad plant response rating (duck salad; [14])
10: Plant response rating, Redroot pigweed (pigweed; [10])
9: Plant response rating, Giant foxtail (giant foxtail; [10])
2: Plant response rating, Wheat (wheat; [10]) | Giant foxtail plant response rating (giant foxtail; [5])
7: Redroot pigweed plant response rating (pigweed; [6])
3: Redroot pigweed plant response rating (pigweed; [5])
8: Plant response rating, Wild oats (wild oat; [10])
